Measurements from patent US20240166652A1, “MODULATORS OF THE INTEGRATED STRESS PATHWAY” (Calico Life Sciences LLC, priority 2017, published 2024).

System: ATF4 luciferase reporter in HEK293T cells
Assay: ATF4-Luc assay (ATF4 luciferase reporter, tunicamycin-treated HEK293T cells)
Assay type: cell-based, human
Details: Homo sapiens, HEK-293T; HEK293T cells carrying the ATF4 luciferase reporter, 1 μg/mL tunicamycin, 7 hours

## O=C(COc1ccc(Cl)c(F)c1)NC12CC(N(CCO)C(=O)COc3ccc(C(F)(F)F)nc3)(C1)C2 [Compound 191, N-{3-[2-(4-chloro-3-fluorophenoxy)acetamido]bicyclo[1.1.1]pentan-1-yl}-N-(2-hydroxyethyl)-2-{[6-(trifluoromethyl)pyridin-3-yl]oxy}acetamide]
  EC50: 500 to 2000 nM

## O=C(COc1ccc(Cl)cc1)NC12CCC(NC(=O)COc3ccc(F)c(Cl)c3)(CC1)CC2 [Compound 743, 2-(3-chloro-4-fluorophenoxy)-N-{4-[2-(4-chlorophenoxy)acetamido]bicyclo[2.2.2]octan-1-yl}acetamide]
  EC50: < 10 nM

## O=C(COc1ccc(Cl)c(Cl)c1)NC12CCC(NC(=O)COc3ccc(Cl)c(F)c3)(CC1)C(=O)N2 [Compound 602, 2-(4-chloro-3-fluorophenoxy)-N-{1-[2-(3,4-dichlorophenoxy)acetamido]-3-oxo-2-azabicyclo[2.2.2]octan-4-yl}acetamide]
  EC50: < 10 nM

## COC1CC2(NC(=O)COc3ccc(Cl)c(F)c3)CCC1(NC(=O)COc1ccc(Cl)c(F)c1)CC2 (stereo not drawn) [Compound 299, N,N′-(2-methoxybicyclo[2.2.2]octane-1,4-diyl)bis[2-(4-chloro-3-fluorophenoxy)acetamide]]
  EC50: 10 to 50 nM

## O=C(O)/C=C1\CC2(NC(=O)COc3ccc(Cl)c(F)c3)CCC1(NC(=O)COc1ccc(Cl)c(F)c1)CC2 [Compound 669, (2E)-{1,4-bis[2-(4-chloro-3-fluorophenoxy)acetamido]bicyclo[2.2.2]octan-2-ylidene}acetic Acid]
  EC50: 50 to 250 nM

## N#Cc1ccc(OCC(=O)NC23CC(NC(=O)COc4ccc(Cl)c(F)c4)(C2)C3)cn1 [Compound 238, 2-(4-chloro-3-fluorophenoxy)-N-(3-{2-[(6-cyanopyridin-3-yl)oxy]acetamido}bicyclo[1.1.1]pentan-1-yl)acetamide]
  EC50: 10 to 50 nM

## Cn1ccc(OCC(=O)NC23CC(NC(=O)COc4ccc(Cl)c(F)c4)(C2)C3)n1 [Compound 381, 2-(4-chloro-3-fluorophenoxy)-N-(3-{2-[(1-methyl-1H-pyrazol-3-yl)oxy]acetamido}bicyclo[1.1.1]pentan-1-yl)acetamide]
  EC50: 500 to 2000 nM

## O=C(COCc1ccc(C(=O)O)cc1)NC12CC(NC(=O)COc3ccc(Cl)c(F)c3)(C1)C2 [Compound 211]
  EC50: > 2000 nM

## O=C(COc1ccc(Cl)c(F)c1)NC1CCC2(NC(=O)COc3ccc(Cl)c(F)c3)CCC1C2 (stereo not drawn) [Compound 573, N,N′-(bicyclo[3.2.1]octane-1,4-diyl)bis[2-(4-chloro-3-fluorophenoxy)acetamide]]
  EC50: < 10 nM

## O=C(COc1ccc(F)c(F)c1)NC12CCC(NC(=O)COc3ccc(Cl)c(F)c3)(CC1)[C@@H](O)C2 [Compound 586, 2-(4-chloro-3-fluorophenoxy)-N-{(2S)-4-[2-(3,4-difluorophenoxy)acetamido]-2-hydroxybicyclo[2.2.2]octan-1-yl}acetamide]
  EC50: < 10 nM

## O=C(COc1cccc(C(F)(F)F)n1)NC12CCC(NC(=O)COc3ccc(Cl)c(F)c3)(CC1)[C@@H](O)C2 [Compound 824, 2-(4-chloro-3-fluorophenoxy)-N-[(2S)-2-hydroxy-4-(2-{[6-(trifluoromethyl)pyridin-2-yl]oxy}acetamido)bicyclo[2.2.2]octan-1-yl]acetamide]
  EC50: 10 to 50 nM

## Cc1cc(OCC(=O)NC23CCC(NC(=O)COc4ccc(C(F)(F)F)c(F)c4)(CC2)C[C@@H]3O)ccc1Cl [Compound 841, 2-(4-chloro-3-methylphenoxy)-N-[(2S)-4-{2-[3-fluoro-4-(trifluoromethyl)phenoxy]acetamido}-2-hydroxybicyclo[2.2.2]octan-1-yl]acetamide]
  EC50: < 10 nM

## O=C(COc1ccc(C(F)(F)F)nc1)NC12CCC(NC(=O)COc3ccc(Cl)c(F)c3)(C1)C2 [Compound 188, 2-(4-chloro-3-fluorophenoxy)-N-[4-(2-{[6-(trifluoromethyl)pyridin-3-yl]oxy}acetamido)bicyclo[2.1.1]hexan-1-yl]acetamide]
  EC50: 50 to 250 nM

## Cc1ccc(OCC(=O)NC23CC(NC(=O)COc4ccc(Cl)cc4)(C2)C3)cc1 [Compound 115, 2-(4-chlorophenoxy)-N-{3-[2-(4-methylphenoxy)acetamido]bicyclo-[1.1.1]pentan-1-yl}acetamide]
  EC50: 50 to 250 nM

## O=C(COc1ccc(Cl)c(F)c1)NC12CC(NS(=O)(=O)Cc3ccccc3F)(C1)C2 [Compound 481, 2-(4-chloro-3-fluorophenoxy)-N-(3-{[(2-fluorophenyl)methanesulfonyl]amino}bicyclo[1.1.1]pentan-1-yl)acetamide]
  EC50: > 2000 nM

## Cc1n[nH]c2cc(OCC(=O)NC34CCC(NC(=O)COc5ccc(Cl)c(F)c5)(CC3)C[C@@H]4O)ccc12 [Compound 749, 2-(4-chloro-3-fluorophenoxy)-N-[(3S)-3-hydroxy-4-{2-[(3-methyl-1H-indazol-6-yl)oxy]acetamido}bicyclo[2.2.2]octan-1-yl]acetamide]
  EC50: < 10 nM

## O=C(COc1ccc(F)c(F)c1)NC12CC(NC(=O)COc3ccc(F)c(Cl)c3)(C1)C2 [Compound 590, 2-(3-chloro-4-fluorophenoxy)-N-{3-[2-(3,4-difluorophenoxy)acetamido]bicyclo[1.1.1]pentan-1-yl}acetamide]
  EC50: < 10 nM

## O=C(COc1ccc(Cl)c(Cl)c1)NC12CC(NC(=O)COc3ccccn3)(C1)C2 [Compound 401, 2-(3,4-dichlorophenoxy)-N-(3-{2-[(pyridin-2-yl)oxy]acetamido}bicyclo[1.1.1]pentan-1-yl)acetamide]
  EC50: 10 to 50 nM

## O=C1COc2c(cc(Cl)cc2OCC(=O)NC23CCC(NC(=O)COc4ccc(Cl)c(F)c4)(CC2)[C@@H](O)C3)N1 [Compound 754, 2-(4-chloro-3-fluorophenoxy)-N-[(2S)-4-{2-[(6-chloro-3-oxo-3,4-dihydro-2H-1,4-benzoxazin-8-yl)oxy]acetamido}-2-hydroxybicyclo[2.2.2]octan-1-yl]acetamide]
  EC50: > 2000 nM

## N#Cc1ncc(OCC(=O)NC23CCC(NC(=O)COc4ccc(Cl)c(F)c4)(CC2)[C@@H](O)C3)cn1 [Compound 623, 2-(4-chloro-3-fluorophenoxy)-N-[(2S)-4-{2-[(2-cyanopyrimidin-5-yl)oxy]acetamido}-2-hydroxybicyclo[2.2.2]octan-1-yl]acetamide]
  EC50: 10 to 50 nM

## O=C(COc1ccc(Cl)c(F)c1)NC12CC(NC(=O)COc3ccccn3)(C1)C2 [Compound 402, 2-(4-chloro-3-fluorophenoxy)-N-(3-{2-[(pyridin-2-yl)oxy]acetamido}bicyclo[1.1.1]pentan-1-yl)acetamide]
  EC50: 50 to 250 nM

## O=C(Cn1cc(F)cnc1=O)NC12CCC(NC(=O)COc3ccc(Cl)c(F)c3)(CC1)[C@@H](O)C2 [Compound 646, 2-(4-chloro-3-fluorophenoxy)-N-{(2S)-4-[2-(5-fluoro-2-oxopyrimidin-1(2H)-yl)acetamido]-2-hydroxybicyclo[2.2.2]octan-1-yl}acetamide]
  EC50: 500 to 2000 nM

## O=C(COc1ccc(Cl)c(F)c1)NC12CCC(NC(=O)COc3ccc(F)c(Cl)c3)(CC1)[C@@H](O)C2 [Compound 596, 2-(4-chloro-3-fluorophenoxy)-N-{(3S)-4-[2-(3-chloro-4-fluorophenoxy)acetamido]-3-hydroxybicyclo[2.2.2]octan-1-yl}acetamide]
  EC50: < 10 nM

## O=C(COc1ccc(F)c(F)c1)NC12CCC(NC(=O)COc3ccc(F)cc3)(CC1)C(O)C2 (stereo not drawn) [Compound 364, 2-(3,4-difluorophenoxy)-N-{4-[2-(4-fluorophenoxy)acetamido]-3-hydroxybicyclo[2.2.2]octan-1-yl}acetamide]
  EC50: < 10 nM

## CN(C)c1cccc(CCOCC(=O)NC23CC(NC(=O)COc4ccc(Cl)c(Cl)c4)(C2)C3)c1 [Compound 170, 2-(3,4-dichlorophenoxy)-N-[3-(2-{2-[3-(dimethylamino)phenyl]ethoxy}-acetamido)bicyclo[1.1.1]pentan-1-yl]acetamide]
  EC50: > 2000 nM

## CCc1ccc(OCC(=O)NC23CCC(NC(=O)COc4ccc(F)c(F)c4)(CC2)[C@@H](O)C3)cc1 [Compound 778, 2-(3,4-difluorophenoxy)-N-{(2S)-4-[2-(4-ethylphenoxy)acetamido]-2-hydroxybicyclo[2.2.2]octan-1-yl}acetamide]
  EC50: 10 to 50 nM

## O=C(COc1ccc(Cl)c(F)c1)N[C@]12CC[C@](NC(=O)COc3ccc(Cl)c(F)c3)(C1)[C@H](O)C2 (racemic) [Compound 579, rac-N,N′-[(1S,2R,4R)-2-hydroxybicyclo[2.2.1]heptane-1,4-diyl]bis[2-(4-chloro-3-fluorophenoxy)acetamide]]
  EC50: 10 to 50 nM

## O=C(COc1ccc(Cl)c(F)c1)NC12CCC(NC(=O)COc3ccc(F)cc3)(CC1)[C@H](O)C2 (single isomer, unassigned) [Compound 353]
  EC50: < 10 nM

## CC(C)(Oc1ccc(Cl)cc1)C(=O)NC12CCC(NC(=O)COc3ccc(Cl)c(F)c3)(CC1)C[C@@H]2O [Compound 453, N-{(2S)-4-[2-(4-chloro-3-fluorophenoxy)acetamido]-2-hydroxybicyclo[2.2.2]octan-1-yl}-2-(4-chlorophenoxy)-2-methylpropanamide]
  EC50: 10 to 50 nM

## O=C(COc1ccc(Cl)c(F)c1)NC12CCC(NC(=O)COc3ccnc(C(F)(F)F)c3)(CC1)C(O)C2 (stereo not drawn) [Compound 308, 2-(4-chloro-3-fluorophenoxy)-N-[3-hydroxy-4-(2-{[2-(trifluoromethyl)pyridin-4-yl]oxy}acetamido)bicyclo[2.2.2]octan-1-yl]acetamide]
  EC50: < 10 nM

## O=C(COc1ccc(C(F)(F)F)c(F)c1)NC12CCC(NC(=O)COc3ccc(C(F)(F)F)c(F)c3)(CC1)[C@@H](O)C2 [Compound 821, N,N′-[(2S)-2-hydroxybicyclo[2.2.2]octane-1,4-diyl]bis{2-[3-fluoro-4-(trifluoromethyl)phenoxy]acetamide}]
  EC50: < 10 nM

## O=C(CO)Nc1cc(Cl)ccc1OCC(=O)NC12CC(NC(=O)COc3ccc(Cl)c(F)c3)(C1)C2 [Compound 789, 2-(4-chloro-3-fluorophenoxy)-N-(3-{2-[4-chloro-2-(2-hydroxyacetamido)phenoxy]acetamido}bicyclo[1.1.1]pentan-1-yl)acetamide]
  EC50: 50 to 250 nM

## CCOc1ccc(OCC(=O)NC23CCC(NC(=O)COc4ccc(Cl)c(F)c4)(CC2)[C@@H](O)C3)cc1 [Compound 464, 2-(4-chloro-3-fluorophenoxy)-N-{(2S)-4-[2-(4-ethoxyphenoxy)acetamido]-2-hydroxybicyclo[2.2.2]octan-1-yl}acetamide]
  EC50: 10 to 50 nM
